Data taken from patent US12391648B2, “Pyridyloxy thioester derivative and preparation method therefor, herbicidal composition, and application” (Qingdao Kingagroot Chemical Compound Co., Ltd., priority 2018, dated 2025).

Columns and labels:
Assay in all cases: Post-emergence test experiment (Table 3, 1000 g/ha)
Assay type in all cases: in vivo
Conditions in all cases: post-emergence spray, after 3 weeks, fresh weight inhibition
Galium spurium = system: Galium spurium
Procedure, shortened: (§1)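 Activity graded levels 0-5 by fresh-weight inhibition (level 5 above 85%, level 0 below 5%), assessed 3 weeks after treatment. Plants grown in greenhouse pots were sprayed post-emergence at 2-3 leaves using acetone/tween-80 solutions with methyl oleate synergist (1.5 L/ha).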

Abutilon theophrasti = system: Abutilon theophrasti
Procedure, shortened: as §1

Digitaria sanguinalis = system: Digitaria sanguinalis
Procedure, shortened: as §1

Setaria viridis = system: Setaria viridis
Procedure, shortened: as §1

Leptochloa chinensis = system: Leptochloa chinensis
Procedure, shortened: as §1

Monochoria vaginalis = system: Monochoria vaginalis
Procedure, shortened: as §1

## CCCCCCC(C)SC(=O)C(C)Oc1nc(F)c(Cl)c(N)c1Cl (stereo not drawn) [Compound 135]
Galium spurium
  Activity level (growth inhibition rate) Galium spurium: 5 (Level 5: the growth inhibition rate is greater than 85%)
Abutilon theophrasti
  Activity level (growth inhibition rate) Abutilon theophrasti: 5 (Level 5: the growth inhibition rate is greater than 85%)
Digitaria sanguinalis
  Activity level (growth inhibition rate) Digitaria sanguinalis: 5 (Level 5: the growth inhibition rate is greater than 85%)
Setaria viridis
  Activity level (growth inhibition rate) Setaria viridis: 5 (Level 5: the growth inhibition rate is greater than 85%)
Leptochloa chinensis
  Activity level (growth inhibition rate) Leptochloa chinensis: 5 (Level 5: the growth inhibition rate is greater than 85%)
Monochoria vaginalis
  Activity level (growth inhibition rate) Monochoria Vaginalis: 5 (Level 5: the growth inhibition rate is greater than 85%)

## CC(C)CCCCCSC(=O)C(C)Oc1nc(F)c(Cl)c(N)c1Cl (stereo not drawn) [Compound 136]
Galium spurium
  Activity level (growth inhibition rate) Galium spurium: 5 (Level 5: the growth inhibition rate is greater than 85%)
Abutilon theophrasti
  Activity level (growth inhibition rate) Abutilon theophrasti: 5 (Level 5: the growth inhibition rate is greater than 85%)
Digitaria sanguinalis
  Activity level (growth inhibition rate) Digitaria sanguinalis: 5 (Level 5: the growth inhibition rate is greater than 85%)
Setaria viridis
  Activity level (growth inhibition rate) Setaria viridis: 5 (Level 5: the growth inhibition rate is greater than 85%)
Leptochloa chinensis
  Activity level (growth inhibition rate) Leptochloa chinensis: 5 (Level 5: the growth inhibition rate is greater than 85%)
Monochoria vaginalis
  Activity level (growth inhibition rate) Monochoria Vaginalis: 5 (Level 5: the growth inhibition rate is greater than 85%)

## CCCCCCCSC(=O)C(C)Oc1nc(F)c(Cl)c(N)c1Cl (stereo not drawn) [Compound 139]
Galium spurium
  Activity level (growth inhibition rate) Galium spurium: 5 (Level 5: the growth inhibition rate is greater than 85%)
Abutilon theophrasti
  Activity level (growth inhibition rate) Abutilon theophrasti: 5 (Level 5: the growth inhibition rate is greater than 85%)
Digitaria sanguinalis
  Activity level (growth inhibition rate) Digitaria sanguinalis: 5 (Level 5: the growth inhibition rate is greater than 85%)
Setaria viridis
  Activity level (growth inhibition rate) Setaria viridis: 5 (Level 5: the growth inhibition rate is greater than 85%)
Leptochloa chinensis
  Activity level (growth inhibition rate) Leptochloa chinensis: 5 (Level 5: the growth inhibition rate is greater than 85%)
Monochoria vaginalis
  Activity level (growth inhibition rate) Monochoria Vaginalis: 5 (Level 5: the growth inhibition rate is greater than 85%)

## CCCCCCCCCSC(=O)C(C)Oc1nc(F)c(Cl)c(N)c1Cl (stereo not drawn) [Compound 140]
Galium spurium
  Activity level (growth inhibition rate) Galium spurium: 5 (Level 5: the growth inhibition rate is greater than 85%)
Abutilon theophrasti
  Activity level (growth inhibition rate) Abutilon theophrasti: 5 (Level 5: the growth inhibition rate is greater than 85%)
Digitaria sanguinalis
  Activity level (growth inhibition rate) Digitaria sanguinalis: 5 (Level 5: the growth inhibition rate is greater than 85%)
Setaria viridis
  Activity level (growth inhibition rate) Setaria viridis: 5 (Level 5: the growth inhibition rate is greater than 85%)
Leptochloa chinensis
  Activity level (growth inhibition rate) Leptochloa chinensis: 5 (Level 5: the growth inhibition rate is greater than 85%)
Monochoria vaginalis
  Activity level (growth inhibition rate) Monochoria Vaginalis: 5 (Level 5: the growth inhibition rate is greater than 85%)

## CCCCCCCCCCSC(=O)C(C)Oc1nc(F)c(Cl)c(N)c1Cl (stereo not drawn) [Compound 141]
Galium spurium
  Activity level (growth inhibition rate) Galium spurium: 5 (Level 5: the growth inhibition rate is greater than 85%)
Abutilon theophrasti
  Activity level (growth inhibition rate) Abutilon theophrasti: 5 (Level 5: the growth inhibition rate is greater than 85%)
Digitaria sanguinalis
  Activity level (growth inhibition rate) Digitaria sanguinalis: 5 (Level 5: the growth inhibition rate is greater than 85%)
Setaria viridis
  Activity level (growth inhibition rate) Setaria viridis: 5 (Level 5: the growth inhibition rate is greater than 85%)
Leptochloa chinensis
  Activity level (growth inhibition rate) Leptochloa chinensis: 5 (Level 5: the growth inhibition rate is greater than 85%)
Monochoria vaginalis
  Activity level (growth inhibition rate) Monochoria Vaginalis: 5 (Level 5: the growth inhibition rate is greater than 85%)

## CCCCCCCCCCCSC(=O)C(C)Oc1nc(F)c(Cl)c(N)c1Cl (stereo not drawn) [Compound 142]
Galium spurium
  Activity level (growth inhibition rate) Galium spurium: 5 (Level 5: the growth inhibition rate is greater than 85%)
Abutilon theophrasti
  Activity level (growth inhibition rate) Abutilon theophrasti: 5 (Level 5: the growth inhibition rate is greater than 85%)
Digitaria sanguinalis
  Activity level (growth inhibition rate) Digitaria sanguinalis: 5 (Level 5: the growth inhibition rate is greater than 85%)
Setaria viridis
  Activity level (growth inhibition rate) Setaria viridis: 5 (Level 5: the growth inhibition rate is greater than 85%)
Leptochloa chinensis
  Activity level (growth inhibition rate) Leptochloa chinensis: 5 (Level 5: the growth inhibition rate is greater than 85%)
Monochoria vaginalis
  Activity level (growth inhibition rate) Monochoria Vaginalis: 5 (Level 5: the growth inhibition rate is greater than 85%)

## CCCCCCCCCCCCSC(=O)C(C)Oc1nc(F)c(Cl)c(N)c1Cl (stereo not drawn) [Compound 143]
Galium spurium
  Activity level (growth inhibition rate) Galium spurium: 5 (Level 5: the growth inhibition rate is greater than 85%)
Abutilon theophrasti
  Activity level (growth inhibition rate) Abutilon theophrasti: 5 (Level 5: the growth inhibition rate is greater than 85%)
Digitaria sanguinalis
  Activity level (growth inhibition rate) Digitaria sanguinalis: 5 (Level 5: the growth inhibition rate is greater than 85%)
Setaria viridis
  Activity level (growth inhibition rate) Setaria viridis: 5 (Level 5: the growth inhibition rate is greater than 85%)
Leptochloa chinensis
  Activity level (growth inhibition rate) Leptochloa chinensis: 5 (Level 5: the growth inhibition rate is greater than 85%)
Monochoria vaginalis
  Activity level (growth inhibition rate) Monochoria Vaginalis: 5 (Level 5: the growth inhibition rate is greater than 85%)

## CCCC(C)SC(=O)C(C)Oc1nc(F)c(Cl)c(N)c1Cl (stereo not drawn) [Compound 144]
Galium spurium
  Activity level (growth inhibition rate) Galium spurium: 5 (Level 5: the growth inhibition rate is greater than 85%)
Abutilon theophrasti
  Activity level (growth inhibition rate) Abutilon theophrasti: 5 (Level 5: the growth inhibition rate is greater than 85%)
Digitaria sanguinalis
  Activity level (growth inhibition rate) Digitaria sanguinalis: 5 (Level 5: the growth inhibition rate is greater than 85%)
Setaria viridis
  Activity level (growth inhibition rate) Setaria viridis: 5 (Level 5: the growth inhibition rate is greater than 85%)
Leptochloa chinensis
  Activity level (growth inhibition rate) Leptochloa chinensis: 5 (Level 5: the growth inhibition rate is greater than 85%)
Monochoria vaginalis
  Activity level (growth inhibition rate) Monochoria Vaginalis: 5 (Level 5: the growth inhibition rate is greater than 85%)

## CCC(C)CSC(=O)C(C)Oc1nc(F)c(Cl)c(N)c1Cl (stereo not drawn) [Compound 145]
Galium spurium
  Activity level (growth inhibition rate) Galium spurium: 5 (Level 5: the growth inhibition rate is greater than 85%)
Abutilon theophrasti
  Activity level (growth inhibition rate) Abutilon theophrasti: 5 (Level 5: the growth inhibition rate is greater than 85%)
Digitaria sanguinalis
  Activity level (growth inhibition rate) Digitaria sanguinalis: 5 (Level 5: the growth inhibition rate is greater than 85%)
Setaria viridis
  Activity level (growth inhibition rate) Setaria viridis: 5 (Level 5: the growth inhibition rate is greater than 85%)
Leptochloa chinensis
  Activity level (growth inhibition rate) Leptochloa chinensis: 5 (Level 5: the growth inhibition rate is greater than 85%)
Monochoria vaginalis
  Activity level (growth inhibition rate) Monochoria Vaginalis: 5 (Level 5: the growth inhibition rate is greater than 85%)

## CC(C)CCSC(=O)C(C)Oc1nc(F)c(Cl)c(N)c1Cl (stereo not drawn) [Compound 146]
Galium spurium
  Activity level (growth inhibition rate) Galium spurium: 5 (Level 5: the growth inhibition rate is greater than 85%)
Abutilon theophrasti
  Activity level (growth inhibition rate) Abutilon theophrasti: 5 (Level 5: the growth inhibition rate is greater than 85%)
Digitaria sanguinalis
  Activity level (growth inhibition rate) Digitaria sanguinalis: 5 (Level 5: the growth inhibition rate is greater than 85%)
Setaria viridis
  Activity level (growth inhibition rate) Setaria viridis: 5 (Level 5: the growth inhibition rate is greater than 85%)
Leptochloa chinensis
  Activity level (growth inhibition rate) Leptochloa chinensis: 5 (Level 5: the growth inhibition rate is greater than 85%)
Monochoria vaginalis
  Activity level (growth inhibition rate) Monochoria Vaginalis: 5 (Level 5: the growth inhibition rate is greater than 85%)
